According to US20080098491A1, “MOUSE MODELS TO STUDY CACHEXIA” (ZOLTAN LABORATORIES LLC, priority 2006, published 2008):

Legend:
[1] = system: MXT mouse mammary tumor; test: Cisplatin-treated MXT mouse mammary tumor model, CCDTHT (Example 10); assay type: in vivo; details: every second day from day 7: cisplatin 3-mg/kg i.p., CCDTHT 4.6-mg/kg s.c., highly purified PALP 14-mg/kg s.c.
Text: (§1) The B16 mouse melanoma and MXT mouse mammary tumors were developed in first generation hybrid BDF1 (C57 B1 female×DBA/2 male) adult female mice kept at specified pathogen free (SPF) hygienic level. These models were chosen for these experiments because these mice have the complete immune system, and both tumors grow very rapidly. To develop the tumors, B16 and MXT tumor tissue fragments of about 0.1-cm^3 were surgically implanted subcutaneously into the intrascapular region to develop the tumors. Each tumor fragment contained about 1-1.5×10^6 cells. The animals were kept in macrolon cages on ventilated rack at 22-24° C. (50-60% humidity) with lighting regimen of 12/12 h light/dark. The animals had free access to tap water and were fed with sterilized standard diet (Charles River VRF1, Germany) ad libitum. The animals were taken care of according to the “Guiding Principle for the care and use of Animals” based upon the Helsinki declaration and they were approved by the local ethical committee.
(§2) In case of both tumor models the tumor size was usually in the range of 0.2 to 0.5-g when treatments started 7-11 days after tumor implantation; the mice were selected so that in the same treatment group the difference in tumor size was no greater than 0.1 gram. In some experiments, the test proteins were suspended in physiological saline and injected in 50-μl volume subcutaneously in the vicinity of tumor (within 1-cm of tumor margin). In other experiments, the test proteins were dispersed in Vaselinum cholesteratum and used topically; 150-mg cream was applied on the tumor and the vicinity of tumor area (with about 0.5-cm of the tumor margin). The tumor volume was determined by using calipers; this technique is well known to one having ordinary skill in the art. Tumor volume was calculated according to the generally accepted formula: V=a^2×b×7r/6, where “a” and “b” mean the shortest and longest diameter, respectively, of the measured tumor.
The mouse MXT mammary tumor was developed as described in Example 3. In the first group, animals remained untreated during the whole observation period. In the second group, starting on the 7th day after tumor implantation, mice were administered 3-mg per 1-kg of cisplatin i.p. 9-times every second day. In the third group, starting on the 7th day after tumor implantation, mice were simultaneously administered 3-mg per 1-kg of cisplatin i.p. and 4.6-mg per 1-kg of CCDTHT s.c. In the fourth group, starting on the 7th day after tumor implantation, mice were simultaneously administered 3-mg per 1-kg of cisplatin i.p. as well as 4.6-mg per 1-kg of CCDTHT s.c. and 14-mg per 1-kg of highly purified PALP s.c. Each treatment was performed 9-times on every second day. Each group included 7 animals. The mean values for total weight, tumor weight and body weight (the difference between total and tumor weight) are shown in TABLE 8.

[2] = system: MXT mouse mammary tumor; test: Cisplatin-treated MXT mouse mammary tumor model, PALP and TF (Example 9, Experiment 1); assay type: in vivo; details: for Body weight (total weight minus tumor weight) / Total weight / Tumor weight: every second day from day 7 (7-times): cisplatin 3-mg/kg i.p., purified PALP 16, commercial PALP 60, TF 14 mg/kg s.c.
Text: as §1, §2
Experiment 1. The mouse MXT mammary tumor was developed as described in Example 3. In the first group, animals remained untreated during the whole observation period. In the second group, starting on the 7th day after tumor implantation, mice were intraperitoneally (i.p.) administered 3-mg per 1-kg total weight of cisplatin 7-times every second day. In the third group, starting on the 7th day after tumor implantation, mice were simultaneously administered 3-mg per 1-kg of cisplatin i.p. and 16-mg per 1-kg of purified PALP s.c. In the fourth group, starting on the 7th day after tumor implantation, mice were simultaneously administered 3-mg per 1-kg of cisplatin i.p. and 60-mg per 1-kg of commercial PALP s.c. In the fifth group, starting on the 7th day after tumor implantation, mice were simultaneously administered 3-mg per 1-kg of cisplatin i.p. and 14-mg per 1-kg of commercial TF (T 3309 in the Sigma catalog) s.c. Each treatment was performed 7-times on every second day. Each group included 7 animals. The mean values for total weight, tumor weight and body weight (the difference between total and tumor weight) are shown in TABLE 6.

[3] = day 7 after tumor transplantation
[4] = day 11 after tumor transplantation
[5] = day 14 after tumor transplantation
[6] = day 16 after tumor transplantation
[7] = day 18 after tumor transplantation
[8] = day 21 after tumor transplantation

Q: What does the source list for `N.N.[Cl][Pt][Cl]` [Cisplatin, cisplatin]?
A: Body weight (total weight minus tumor weight) ([1]; day 7 after transplantation): 21.95 g; Total weight ([1]; day 7 after transplantation): 22.20 g; Tumor weight ([1]; day 7 after transplantation): 0.25 g; Body weight (total weight minus tumor weight) ([1]; day 9 after transplantation): 22.45 g; Total weight ([1]; day 9 after transplantation): 23.00 g; Tumor weight ([1]; day 9 after transplantation): 0.55 g; Body weight (total weight minus tumor weight) ([1]; day 11 after transplantation): 21.75 g; Total weight ([1]; day 11 after transplantation): 23.10 g; Tumor weight ([1]; day 11 after transplantation): 1.35 g; Body weight (total weight minus tumor weight) ([1]; day 15 after transplantation): 20.25 g; Total weight ([1]; day 15 after transplantation): 22.90 g; Tumor weight ([1]; day 15 after transplantation): 2.65 g; Body weight (total weight minus tumor weight) ([1]; day 17 after transplantation): 17.85 g; Total weight ([1]; day 17 after transplantation): 21.60 g; Tumor weight ([1]; day 17 after transplantation): 3.75 g; Body weight (total weight minus tumor weight) ([1]; day 21 after transplantation): 15.95 g; Total weight ([1]; day 21 after transplantation): 20.60 g; Tumor weight ([1]; day 21 after transplantation): 4.65 g; Body weight (total weight minus tumor weight) [2, 3]: 22.45 g; Total weight [2, 3]: 22.70 g; Tumor weight [2, 3]: 0.25 g; Body weight (total weight minus tumor weight) [2, 4]: 22.10 g; Total weight [2, 4]: 23.10 g; Tumor weight [2, 4]: 1.00 g; Body weight (total weight minus tumor weight) [2, 5]: 19.50 g; Total weight [2, 5]: 21.70 g; Tumor weight [2, 5]: 2.20 g; Body weight (total weight minus tumor weight) [2, 6]: 16.90 g; Total weight [2, 6]: 20.10 g; Tumor weight [2, 6]: 3.20 g; Body weight (total weight minus tumor weight) [2, 7]: 16.30 g; Total weight [2, 7]: 20.10 g; Tumor weight [2, 7]: 3.80 g; Body weight (total weight minus tumor weight) [2, 8]: 15.10 g; Total weight [2, 8]: 19.20 g; Tumor weight [2, 8]: 4.10 g; Decrease in body weight ([2]; from day 11 to day 23, cisplatin 3-mg/kg i.p. every second day): ~33%
